# “Also recorded” adds a separate entry of the source.
# What was measured:
# [1] = tested on: transient working neuronal assemblies in in vitro hippocampal slices; assay: Optical imaging with voltage sensitive dye Di-4-ANEPPS (ΔF/F) of paired-pulse stimulated hippocampal slices; assay type: cell-based, rat; settings: for effect on population activity / prolongation of activation of the neuronal assembly after the second pulse / time for which neurons remain activated / return to resting baseline after peak activation following the second stimulating pulse: optical imaging; for effect on population activity / prolongation of activation of the neuronal assembly after the second pulse: vs control ACSF; for time for which neurons remain activated / return to resting baseline after peak activation following the second stimulating pulse: morphine 10-100 μM, gabapentin 100-150 μM, thiopental 80-150 μM, propofol 10-50 μM, control returns within 60 ms; for optical ΔF/F peak 2 value vs control / optical ΔF/F peak 1 value vs control: paired t-test n=6; for time from peak to half peak activity, peak 2 (t3−t4), vs control: ΔF/F data
# Experimental: (§1) In the study, collective synchronised neuronal activity, i.e. working neuronal assemblies^3, were recorded while monitoring in parallel the underlying synaptic electrical activity (FIG. 1a). Accordingly, the use of the voltage sensitive dye, Di-4-ANEPPS, was combined with standard electrophysiological field potential recordings to measure the excitatory post-synaptic potentials (EPSPs). Under control conditions in physiological saline, electrical stimuli in a paired-pulse paradigm^18 were applied to the Schaffer Collaterals of in vitro hippocampal slices.
# (§2) Following terminal anaesthesia using halothane, 400 μm transverse hippocampal slices from 2 week Wistar rats were obtained and left to rest for one hour in a high humidity chamber with oxygenated artificial cerebrospinal fluid (ACSF) (in mM: 124 NaCl, 22 NaHCO3, 10 glucose, 5 KCl, 2 CaCl2, 1.25 MgSO4, 1.25 NaH2PO4) before being submersed in dye solution (4% dye stock solution (in mM: 0.2 mM Di-4-ANEPPS (Molecular Probes, Oregon, USA) in 2.7% ethanol, 0.13% Cremaphor EL), 48% fetal bovine serum and 24% ACSF and 24% ACSF cellulose) for 25 minutes followed by a further one hour rest in the humidity chamber with oxygenated ACSF.
# (§3) Electrical stimulation (paired pulse 8-10V, 60 ms interval, 0.1 ms duration) was generated by an isolated stimulator (Digitimer Ltd, UK) via a bipolar electrode (FHC, Maine, USA) and positioned just above the CA3 region. In this way, paired pulses were applied along the Shaffer Collaterals so as to elicit a spreading depolarising wave that formed from the point of stimulation and moved along the pathway towards the CA1 region. A halogen lamp provided the excitatory wavelengths for the dye (through a λ=530±10 nm filter) while the emission was captured on a 2 mm×3 mm CCD sensor (MiCAM01, BrainVision, Tokyo, Japan) through an absorption filter (λ=590 nm). Optical recordings were acquired at a rate of 0.7 ms frame^−1 for 682 frames. 16 optical recordings were averaged for each experimental condition to reduce the effects of dye bleaching and increase the signal-to-noise ratio. Analysis included ΔF/F calculations and a 5×5×3 Gaussian matrix filter (BrainVision Analysis software and Igor Pro 5, Wavemetrics, USA). As indicated above, such optical imaging was combined with standard electrophysiological field potential recordings to measure the excitory post synaptic potentials (EPSPs). […] All statistical comparisons were performed using student t-test of paired samples, n=6; 95% confidence interval.
# [2] = tested on: in vitro hippocampal slices (Schaffer Collaterals, excitatory post-synaptic potentials); assay: Electrophysiological field potential (EPSP) recordings in paired-pulse stimulated hippocampal slices; assay type: cell-based, rat; settings: for time from peak to half peak activity, peak 2 (t3−t4), vs control: EPSP data; for paired-pulse facilitation in EPSP recordings, treatment vs control / EPSP peak 1 value vs control / EPSP peak 2 value vs control: morphine 10-100 μM, gabapentin 100-150 μM, thiopental 80-150 μM, propofol 10-50 μM; for EPSP peak 1 value vs control / EPSP peak 2 value vs control: paired t-test n=6
# Experimental: as §1, §2, §3
SMILES,effect on population activity / prolongation of activation of the neuronal assembly after the second pulse [1],time for which neurons remain activated / return to resting baseline after peak activation following the second stimulating pulse [1],optical ΔF/F peak 2 value vs control [1],"time from peak to half peak activity, peak 2 (t3−t4), vs control [1]","time from peak to half peak activity, peak 2 (t3−t4), vs control [2]","paired-pulse facilitation in EPSP recordings, treatment vs control [2]",EPSP peak 1 value vs control [2],EPSP peak 2 value vs control [2],"paired-pulse facilitation in ΔF/F recordings, treatment vs control [1]",optical ΔF/F peak 1 value vs control [1]
NCC1(CC(=O)O)CCCCC1 [gabapentin],not substantially altered; also recorded: no such effect,≤ 60 ms,significant difference,no significant difference,no significant difference,no significant difference,not significantly changed,not significantly changed,,
"CC(C)c1cccc(C(C)C)c1O [propofol, 2,6-diisopropylphenol]",prolonged activation,,significant reduction,very highly significant differences,low statistical difference,did not significantly differ,significantly reduced,significantly reduced,did not significantly change,did not differ significantly
"CCCC(C)C1(CC)C(=O)NC(=S)NC1=O (stereo not shown) [thiopental, 5-ethyl-5-(1-methylbutyl)-2-thiobarbituricacid]",prolonged activation,up to 500 ms,significant reduction,highly significant,no significant change,abolished,significantly reduced,significantly reduced,abolished,did not differ significantly
CN1CC[C@]23c4c5ccc(O)c4O[C@H]2[C@@H](O)C=C[C@H]3[C@H]1C5 [morphine],,≤ 60 ms,,,,,,,,

# From US20090226952A1, “SCREENING METHOD FOR COMPOUNDS WITH A[…]” (Isis Innovation Limited, priority 2005, published 2009)
